Reference: paper PMC7321065, “Discovery of New Schiff Bases Tethered Pyrazole Moiety: Design, Synthesis, Biological Evaluation, and Molecular Docking Study as Dual Targeting DHFR/DNA Gyrase Inhibitors with Immunomodulatory Activity” (Molecules, 2020)

Key:
Pseudomonas aeruginosa = test: Inhibition zone, agar plate diffusion; assay type: cell-based; conditions: Pa, mm ± standard deviation, sample at 0.5 mg/mL, read-out: Inhibition zone (IZ)
Protocol: (§1) Antimicrobial activities of the newly formed Schiff bases (6a–d, 7a–d, 8a–d, and 9a–d) and reference drugs were evaluated against three Gram-positive, three Gram-negative, and two fungi strain at Al-Azhar University, Cairo, Egypt. The inhibition zones (IZ, in mm ± standard deviation) and the minimal inhibitory concentration (MIC) (μg/mL) were determined by the conventional paper disk diffusion method.
(§2) In Vitro Antimicrobial Activities
(§3) The antimicrobial activities inhibition zone (IZ, mm±standard deviation) of pyrazole Schiff bases ( 6a-d , 7a-d, 8a-d and 9a-d ) was measurement according to the agar plate diffusion method. Briefly, 100 µl of the […]
(§4) […] of each sample (at 0.5 mg/mL) was added to each well (10 mm diameter holes cut in the agar gel). The plates were incubated for 24 h at 37 °C (for bacteria and yeast) and for 72 h at 27 °C (for filamentous fungi), each test was repeated three times. After incubation, the microorganism's growth was observed. […]
(§5) drugs while Amphotericin B was used as standard antifungal drug. The resulting inhibition zone diameters were measured in millimeters and used as criterion for the antimicrobial activity. Solvent controls (DMSO) were included in every experiment as negative controls. DMSO was used for dissolving […]
(§6) the tested microorganisms. […]

Bacillus subtilis = test: Inhibition zone, agar plate diffusion; assay type: cell-based; conditions: Bs, mm ± standard deviation, sample at 0.5 mg/mL, read-out: Inhibition zone (IZ)
Protocol: as §1, §2, §3, §4, §5, §6

Escherichia coli = test: Inhibition zone, agar plate diffusion; assay type: cell-based; conditions: Ec, mm ± standard deviation, sample at 0.5 mg/mL, read-out: Inhibition zone (IZ)
Protocol: as §1, §2, §3, §4, §5, §6

Enterococcus faecalis = test: Inhibition zone, agar plate diffusion; assay type: cell-based; conditions: Ef, mm ± standard deviation, sample at 0.5 mg/mL, read-out: Inhibition zone (IZ)
Protocol: as §1, §2, §3, §4, §5, §6

Salmonella typhi = test: Inhibition zone, agar plate diffusion; assay type: cell-based; conditions: Salmonella enterica, St, mm ± standard deviation, sample at 0.5 mg/mL, read-out: Inhibition zone (IZ)
Protocol: as §1, §2, §3, §4, §5, §6
(§7) Bacteria were grown on nutrient agar medium, while fungi and yeast were grown on Sabouraud agar medium. […]

Fusarium oxysporum = test: Inhibition zone, agar plate diffusion; assay type: cell-based; conditions: Fo, mm ± standard deviation, sample at 0.5 mg/mL, read-out: Inhibition zone (IZ)
Protocol: as §1, §2, §3, §4, §5, §6, §7

Staphylococcus aureus = test: Inhibition zone, agar plate diffusion; assay type: cell-based; conditions: Sa, mm ± standard deviation, sample at 0.5 mg/mL, read-out: Inhibition zone (IZ)
Protocol: as §1, §2, §3, §4, §5, §6, §7

Candida albicans = test: Inhibition zone, agar plate diffusion; assay type: cell-based; conditions: Ca, mm ± standard deviation, sample at 0.5 mg/mL, read-out: Inhibition zone (IZ)
Protocol: as §1, §2, §3, §4, §5, §6, §7

In the case of `COc1ccc(Nc2n[nH]c(N=Cc3cc(OC)c(OC)c(OC)c3)c2C(=O)Nc2ccc(C)cc2)cc1` [9c, 3-(p-Methoxyphenylamino)-N-p-tolyl-5-(3,4,5-trimethoxybenzylideneamino)-1H-pyrazole-4-carboxamide], the zone of inhibition at 500 µg/mL (Pseudomonas aeruginosa) is reported as < 8 mm, the zone of inhibition at 500 µg/mL (Bacillus subtilis) is reported as 22 ± 0.18 mm and the zone of inhibition at 500 µg/mL (Escherichia coli) is reported as 23 ± 0.44 mm. For the same molecule, the zone of inhibition at 500 µg/mL (Enterococcus faecalis) was 21 ± 0.72 mm, the zone of inhibition at 500 µg/mL (Salmonella typhi) was 23 ± 0.33 mm and the zone of inhibition at 500 µg/mL (Fusarium oxysporum) was 19 ± 0.28 mm. The zone of inhibition at 500 µg/mL (Staphylococcus aureus) was 22 ± 0.34 mm, the zone of inhibition at 500 µg/mL (Candida albicans) was 21 ± 0.5 mm and the melting point was 234 to 236 °C.
